Molecular target: T1, Human autotaxin enzyme (Homo sapiens, UniProt Q13822)
T1 construct: purchased R&D System
Experiment: Evaluation of autotaxin inhibitor, Method C (18:0 Lyso PC substrate, choline assay, Resorufin fluorescence)
Format: biochemical
Settings: Method C (Test Example 3), read-out: Inhibitory activity (enzyme inhibitory activity, IC50)
Summary of the method: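 Recombinant human autotaxin with compound and 200 μM 18:0 Lyso PC (stock) in Tris-HCl pH 7.5, NaCl, MgCl2, Triton X-100, 2 h RT. Released choline detected via choline oxidase/peroxidase/Amplex-type reagent, 20 min, resorufin fluorescence 531/598 nm; % inhibition vs no-compound and no-enzyme controls, concentration-response curve.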

Q: `CCCCC1CN(Cc2cccc(C(=O)O)c2)C(=O)c2cc(-c3ccc(Cl)cc3)nn21` (centres unmarked) [Compound I-0150] was tested. Which IC50 did it give?
A: < 10 nM

Q: With `CCCCCC1CN(Cc2ccc(O)cc2)C(=O)c2cc(-c3ccc(Cl)cc3)nn21` (centres unmarked) [Compound I-0123] as the compound, how does the IC50 read?
A: ≥ 1000 nM

Q: With `CCCCCC1CN(c2cccc(OCC(=O)O)c2)C(=O)c2cc(-c3ccc(Cl)cc3)nn21` (centres unmarked) [Compound I-0203] as the compound, how does the IC50 read?
A: ≥ 1000 nM

Q: With `C[C@H]1CN(Cc2ccc(C#N)cc2)C(=O)c2cc(-c3ccc(Cl)cc3NS(C)(=O)=O)nn21` [Compound I-0323] as the compound, how does the IC50 read?
A: 100 to 1000 nM

Q: `CCCCCC1CN(Cc2cccc(C#N)c2)C(=O)c2cc(-c3ccc(Cl)cc3)nn21` (centres unmarked) [Compound I-0131] was tested. Which IC50 did it give?
A: 100 to 1000 nM

Q: For `CCCOCC1CN(Cc2cccc(C(=O)O)c2)C(=O)c2cc(-c3ccc(Cl)cc3)nn21` (centres unmarked) [Compound I-0176], which IC50 is on record?
A: < 10 nM

Q: How did the IC50 turn out when `COCC(=O)Nc1cc(C#N)ccc1-c1cc2n(n1)[C@@H](C)CN(CC(=O)N(C)CCC#N)C2=O` [Compound I-0351] was run?
A: < 10 nM

Q: How did the IC50 turn out when `CCCCC1CN(Cc2ccc(C#N)cc2)C(=O)c2cc(N3CCC(C#N)CC3)nn21` (centres unmarked) [Compound I-0304] was run?
A: ≥ 1000 nM

Q: Which IC50 does the source give for `CCCCC1CN(CC2CN(CC#N)C(=O)O2)C(=O)c2cc(-c3ccc(Cl)cc3)nn21` (centres unmarked) [Compound I-0299] here?
A: 10 to 100 nM

Q: Which IC50 does the source give for `CCCCC1CN(CC(=O)NCc2cccc(O)c2)C(=O)c2cc(-c3ccc(Cl)cc3)nn21` (centres unmarked) [Compound I-0226] here?
A: 100 to 1000 nM

Q: Which IC50 does the source give for `C[C@H]1CN(Cc2ccc(CC(=O)O)cc2)C(=O)c2cc(-c3ccc(Cl)cc3)nn21` [Compound I-0170] here?
A: 10 to 100 nM

Q: How did the IC50 turn out when `CC(C#N)Nc1cc(Cl)ccc1-c1cc2n(n1)[C@@H](C)CN(Cc1ccc(C#N)cc1)C2=O` (some centres unmarked) [Compound I-0325] was run?
A: ≥ 1000 nM

Q: How did the IC50 turn out when `CCCCC1CN(Cc2ccncc2)C(=O)c2cc(-c3ccc(Cl)cc3)nn21` (centres unmarked) [Compound I-0257] was run?
A: 100 to 1000 nM

Q: `CC(=O)NC1=C(c2cc3n(n2)[C@@H](C)CN(Cc2ccc(C#N)cc2)C3=O)C(O)CC(C(F)(F)F)C1` (some centres unmarked) [Compound I-0369] was tested. Which IC50 did it give?
A: 100 to 1000 nM

Q: Which IC50 does the source give for `CCCCCC1CN(c2ccc(C(=O)N(C)C)cc2)C(=O)c2cc(-c3ccc(Cl)cc3)nn21` (centres unmarked) [Compound I-0310] here?
A: ≥ 1000 nM

Q: `CCCCCC1CN(CC(=O)N2CCC(C)CC2)C(=O)c2cc(-c3ccc(Cl)cc3)nn21` (centres unmarked) [Compound I-0093] was tested. Which IC50 did it give?
A: 100 to 1000 nM

Q: `CCCCCCC1CCCN1C(=O)CN1CC(CCCCC)n2nc(-c3ccc(Cl)cc3)cc2C1=O` (centres unmarked) [Compound I-0031] was tested. Which IC50 did it give?
A: ≥ 1000 nM

Q: `C[C@H]1CN(CC(=O)N(C)CCC#N)C(=O)c2cc(-c3ccc(C#N)cc3NC(=O)C(C)(C)C)nn21` [Compound I-0359] was tested. Which IC50 did it give?
A: 10 to 100 nM

Q: How did the IC50 turn out when `CCCCNC(=O)CN1C[C@H](C)n2nc(-c3ccc(Cl)cc3)cc2C1=O` [Compound I-0153] was run?
A: ≥ 1000 nM

Q: Which IC50 does the source give for `C[C@H]1CN(CC(=O)N(C)CC#N)C(=O)c2cc(-c3ccc(C#N)cc3NC(=O)C3CC3)nn21` [Compound I-0364] here?
A: 10 to 100 nM

Q: Which IC50 does the source give for `C[C@H]1CN(Cc2ccc(C#N)cc2)C(=O)c2cc(-c3ccc(Cl)cc3NC(=O)CN(C)C)nn21` [Compound I-0332] here?
A: 10 to 100 nM

Q: For `CCCCCC1CN(CC(=O)N2CCCC2c2ccccc2)C(=O)c2cc(-c3ccc(Cl)cc3)nn21` (centres unmarked) [Compound I-0107], which IC50 is on record?
A: 100 to 1000 nM

Q: How did the IC50 turn out when `CCCCC1CN(CNC(=O)CO)C(=O)c2cc(-c3ccc(Cl)cc3)nn21` (centres unmarked) [Compound I-0290] was run?
A: 100 to 1000 nM

Q: For `CCOC(=O)CN1CC(COCc2ccccc2)n2nc(-c3ccc(Cl)cc3)cc2C1=O` (centres unmarked) [Compound I-0026], which IC50 is on record?
A: ≥ 1000 nM

Q: Which IC50 does the source give for `CCCC1CN(Cc2ccc(C#N)cc2)C(=O)c2cc(-c3ccc(C(F)(F)F)cc3)nn21` (centres unmarked) [Compound I-0182] here?
A: ≥ 1000 nM

Q: `C[C@H]1CN(Cc2ccc(C#N)cc2)C(=O)c2cc(-c3c(N)cc(Cl)cc3CO)nn21` [Compound I-0346] was tested. Which IC50 did it give?
A: 100 to 1000 nM

Q: For `CCCCCC1CN(Cc2cccc(C(=O)O)n2)C(=O)c2cc(-c3ccc(Cl)cc3)nn21` (centres unmarked) [Compound I-0184], which IC50 is on record?
A: < 10 nM

Q: Which IC50 does the source give for `CCCCC1CN(Cc2ccc(C#N)cc2)C(=O)c2cc(-c3ccc(Cl)cc3NC(C)=O)nn21` (centres unmarked) [Compound I-0189] here?
A: 10 to 100 nM

Q: How did the IC50 turn out when `O=C(O)C1CCN(C(=O)CN2C(=O)c3cc(-c4ccc(Cl)cc4)nn3C3COCC32)CC1` (centres unmarked) [Compound I-0028] was run?
A: ≥ 1000 nM

Q: With `CCOC(=O)CN1C[C@H](c2ccccc2)n2nc(-c3ccc(Cl)cc3)cc2C1=O` [Compound I-0021] as the compound, how does the IC50 read?
A: ≥ 1000 nM

Q: With `CCOC(=O)CN1CC(C2CC2)n2nc(-c3ccc(Cl)cc3)cc2C1=O` (centres unmarked) [Compound I-0018] as the compound, how does the IC50 read?
A: ≥ 1000 nM

Q: For `CCCCCC1CN(CC(=O)Nc2ccncc2)C(=O)c2cc(-c3ccc(Cl)cc3)nn21` (centres unmarked) [Compound I-0084], which IC50 is on record?
A: ≥ 1000 nM

Q: How did the IC50 turn out when `CCCCCC1CN(CC(=O)NCCCC(=O)O)C(=O)c2cc(-c3ccc(Cl)cc3)nn21` (centres unmarked) [Compound I-0047] was run?
A: 10 to 100 nM

Q: With `C[C@H]1CN(Cc2ccccc2)C(=O)c2cc(-c3ccc(Cl)cc3)nn21` [Compound I-0172] as the compound, how does the IC50 read?
A: ≥ 1000 nM

Q: With `CCCCC1CN(CC(=O)N2[C@H](C)COC[C@@H]2C)C(=O)c2cc(-c3ccc(Cl)cc3)nn21` (some centres unmarked) [Compound I-0223] as the compound, how does the IC50 read?
A: 100 to 1000 nM

Q: With `CCCCCC1CN(Cc2cc(C)cc(C(=O)OC)c2)C(=O)c2cc(-c3ccc(Cl)cc3)nn21` (centres unmarked) [Compound I-0126] as the compound, how does the IC50 read?
A: ≥ 1000 nM

Q: For `CCCCCC1CN(CC(=O)N2CCCCC2C)C(=O)c2cc(-c3ccc(Cl)cc3)nn21` (centres unmarked) [Compound I-0116], which IC50 is on record?
A: 10 to 100 nM

Q: How did the IC50 turn out when `CCCCCC1CN(Cc2ccc(C)cc2)C(=O)c2cc(-c3ccc(Cl)cc3)nn21` (centres unmarked) [Compound I-0130] was run?
A: 100 to 1000 nM

Q: `CCCCC1CN(Cc2ccc(C#N)cc2)C(=O)c2cc(N3CCC(F)(F)CC3)nn21` (centres unmarked) [Compound I-0302] was tested. Which IC50 did it give?
A: 100 to 1000 nM

Q: How did the IC50 turn out when `CC(=O)NC[C@@H](O)CN1C[C@H](C)n2nc(-c3ccc(OC(F)(F)F)cc3NC(C)=O)cc2C1=O` [Compound I-0340] was run?
A: 10 to 100 nM

Q: Which IC50 does the source give for `CCCCC1CN(Cc2ccc(C#N)cc2)C(=O)c2cc(-c3ccc(OC(F)(F)F)cc3)nn21` (centres unmarked) [Compound I-0194] here?
A: 100 to 1000 nM

Q: `CCCCCC1CN(CC(=O)Nc2cccc(C(=O)O)c2)C(=O)c2cc(-c3ccc(Cl)cc3)nn21` (centres unmarked) [Compound I-0049] was tested. Which IC50 did it give?
A: 10 to 100 nM

Q: `CCNc1cc(Cl)ccc1-c1cc2n(n1)[C@@H](C)CN(Cc1ccc(C#N)cc1)C2=O` [Compound I-0328] was tested. Which IC50 did it give?
A: 100 to 1000 nM

Q: With `CCNc1cc(Cl)cc(CO)c1-c1cc2n(n1)[C@@H](C)CN(Cc1ccc(C#N)cc1)C2=O` [Compound I-0356] as the compound, how does the IC50 read?
A: < 10 nM

Q: Which IC50 does the source give for `CCCCC1CN(CC(=O)N2[C@@H]3CC[C@H]2C[C@@H](O)C3)C(=O)c2cc(-c3ccc(Cl)cc3)nn21` (some centres unmarked) [Compound I-0238] here?
A: 100 to 1000 nM

Q: For `C[C@H]1CN(CC(=O)N2CCCC2)C(=O)c2cc(-c3ccc(Cl)cc3)nn21` [Compound I-0154], which IC50 is on record?
A: ≥ 1000 nM

Q: Which IC50 does the source give for `N#Cc1ccc(CN2CC(COCc3ccccc3)n3nc(-c4ccc(Cl)cc4)cc3C2=O)cc1` (centres unmarked) [Compound I-0177] here?
A: ≥ 1000 nM

Q: How did the IC50 turn out when `O=C(O)c1cccc(CN2CC(COCc3ccccc3)n3nc(-c4ccc(Cl)cc4)cc3C2=O)c1` (centres unmarked) [Compound I-0173] was run?
A: 100 to 1000 nM

Q: Which IC50 does the source give for `C[C@H]1CN(Cc2cccc(C(=O)N3CCC(O)CC3)c2)C(=O)c2cc(-c3ccc(Cl)cc3)nn21` [Compound I-0167] here?
A: ≥ 1000 nM

Q: For `C[C@H]1CN(Cc2ccc(C#N)cc2)C(=O)c2cc(-c3ccc(Cl)cc3C=O)nn21` [Compound I-0296], which IC50 is on record?
A: 100 to 1000 nM

Q: With `CCCCCC1CN(Cc2ccc(S(C)(=O)=O)cc2)C(=O)c2cc(-c3ccc(Cl)cc3)nn21` (centres unmarked) [Compound I-0141] as the compound, how does the IC50 read?
A: 100 to 1000 nM

Q: How did the IC50 turn out when `CCCCC1CN(Cc2ccc(C#N)cc2)C(=O)c2cc(N3Cc4ccccc4C3)nn21` (centres unmarked) [Compound I-0306] was run?
A: ≥ 1000 nM

Q: With `CCCCCC1CN(Cc2ccccc2C)C(=O)c2cc(-c3ccc(Cl)cc3)nn21` (centres unmarked) [Compound I-0127] as the compound, how does the IC50 read?
A: ≥ 1000 nM

— US10189843B2, “Fused pyrazole derivative having autotaxin inhibitory activity” (The University of Tokyo, priority 2014, dated 2019)
